pKi: −log10 of the molar value.
How the values were obtained:
Assay in all cases: HTRF
ABL1 (human) = ABL1 (human) (UniProt P00519)
BLK (human) = BLK (human) (UniProt P51451)
BTK (human) = BTK (human) (UniProt Q06187)
CSF1R (human) = CSF1R (human) (UniProt P07333)
EPHA2 (human) = EPHA2 (human) (UniProt P29317)
ERBB4 (human) = ERBB4 (human) (UniProt Q15303)
FER (human) = FER (human) (UniProt P16591)
FGFR1 (human) = FGFR1 (human) (UniProt P11362)
FLT3 (human) = FLT3 (human) (UniProt P36888)
FLT4 (human) = FLT4 (human) (UniProt P35916)
FRK (human) = FRK (human) (UniProt P42685)
Sequence of FRK (human) (P42685 whole entry, looked up): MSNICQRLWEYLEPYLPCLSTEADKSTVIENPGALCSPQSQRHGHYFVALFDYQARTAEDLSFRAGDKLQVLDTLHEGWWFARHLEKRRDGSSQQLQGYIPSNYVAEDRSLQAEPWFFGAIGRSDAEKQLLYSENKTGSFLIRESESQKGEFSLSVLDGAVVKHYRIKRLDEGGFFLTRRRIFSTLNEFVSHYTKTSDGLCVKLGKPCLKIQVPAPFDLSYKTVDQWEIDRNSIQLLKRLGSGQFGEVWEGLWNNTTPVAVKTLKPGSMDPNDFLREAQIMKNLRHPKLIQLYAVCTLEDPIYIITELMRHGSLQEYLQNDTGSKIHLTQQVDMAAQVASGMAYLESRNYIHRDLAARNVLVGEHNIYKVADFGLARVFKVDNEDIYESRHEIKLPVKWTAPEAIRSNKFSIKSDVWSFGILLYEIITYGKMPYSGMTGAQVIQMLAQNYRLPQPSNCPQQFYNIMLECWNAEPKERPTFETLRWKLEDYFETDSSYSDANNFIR

FYN (human) = FYN (human) (UniProt P06241)
IGF1R (human) = IGF1R (human) (UniProt P08069)
INSR (human) = INSR (human) (UniProt P06213)
Sequence of INSR (human) (P06213 whole entry, looked up): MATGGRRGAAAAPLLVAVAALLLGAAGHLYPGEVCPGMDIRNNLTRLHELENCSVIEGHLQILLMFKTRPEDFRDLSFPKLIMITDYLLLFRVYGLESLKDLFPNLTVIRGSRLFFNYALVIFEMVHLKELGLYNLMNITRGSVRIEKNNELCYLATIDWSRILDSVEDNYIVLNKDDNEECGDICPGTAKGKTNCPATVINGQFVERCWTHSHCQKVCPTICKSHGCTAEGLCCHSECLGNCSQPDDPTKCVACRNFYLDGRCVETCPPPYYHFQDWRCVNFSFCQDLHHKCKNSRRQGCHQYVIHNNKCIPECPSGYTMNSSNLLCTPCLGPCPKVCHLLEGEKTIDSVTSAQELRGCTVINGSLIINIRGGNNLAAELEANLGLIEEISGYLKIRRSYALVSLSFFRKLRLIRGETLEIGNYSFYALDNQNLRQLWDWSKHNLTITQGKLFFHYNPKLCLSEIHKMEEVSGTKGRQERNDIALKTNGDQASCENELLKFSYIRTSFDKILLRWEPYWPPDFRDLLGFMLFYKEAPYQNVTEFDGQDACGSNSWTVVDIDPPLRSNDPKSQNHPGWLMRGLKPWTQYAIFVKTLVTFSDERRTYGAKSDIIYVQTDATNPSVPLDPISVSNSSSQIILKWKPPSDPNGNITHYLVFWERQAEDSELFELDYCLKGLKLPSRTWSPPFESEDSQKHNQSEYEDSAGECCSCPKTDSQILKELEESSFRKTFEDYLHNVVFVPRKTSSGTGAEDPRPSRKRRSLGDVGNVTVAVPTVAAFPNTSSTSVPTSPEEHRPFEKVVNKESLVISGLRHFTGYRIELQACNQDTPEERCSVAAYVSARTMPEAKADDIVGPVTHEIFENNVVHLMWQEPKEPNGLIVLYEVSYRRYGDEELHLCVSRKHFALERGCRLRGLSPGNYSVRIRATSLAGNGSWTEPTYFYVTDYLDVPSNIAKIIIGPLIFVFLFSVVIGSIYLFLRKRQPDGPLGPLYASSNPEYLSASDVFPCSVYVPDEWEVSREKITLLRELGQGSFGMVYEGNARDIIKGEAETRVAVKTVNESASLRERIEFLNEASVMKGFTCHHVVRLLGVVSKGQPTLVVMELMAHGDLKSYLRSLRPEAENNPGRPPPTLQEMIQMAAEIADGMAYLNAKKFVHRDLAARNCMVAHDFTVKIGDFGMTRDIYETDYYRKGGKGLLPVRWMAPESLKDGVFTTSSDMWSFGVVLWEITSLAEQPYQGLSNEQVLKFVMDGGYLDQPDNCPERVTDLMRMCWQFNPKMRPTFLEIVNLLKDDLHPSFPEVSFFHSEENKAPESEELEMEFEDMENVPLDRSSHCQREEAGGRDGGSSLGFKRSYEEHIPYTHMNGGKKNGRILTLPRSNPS

KDR (human) = KDR (human) (UniProt P35968)
Sequence of KDR (human) (P35968 whole entry, looked up): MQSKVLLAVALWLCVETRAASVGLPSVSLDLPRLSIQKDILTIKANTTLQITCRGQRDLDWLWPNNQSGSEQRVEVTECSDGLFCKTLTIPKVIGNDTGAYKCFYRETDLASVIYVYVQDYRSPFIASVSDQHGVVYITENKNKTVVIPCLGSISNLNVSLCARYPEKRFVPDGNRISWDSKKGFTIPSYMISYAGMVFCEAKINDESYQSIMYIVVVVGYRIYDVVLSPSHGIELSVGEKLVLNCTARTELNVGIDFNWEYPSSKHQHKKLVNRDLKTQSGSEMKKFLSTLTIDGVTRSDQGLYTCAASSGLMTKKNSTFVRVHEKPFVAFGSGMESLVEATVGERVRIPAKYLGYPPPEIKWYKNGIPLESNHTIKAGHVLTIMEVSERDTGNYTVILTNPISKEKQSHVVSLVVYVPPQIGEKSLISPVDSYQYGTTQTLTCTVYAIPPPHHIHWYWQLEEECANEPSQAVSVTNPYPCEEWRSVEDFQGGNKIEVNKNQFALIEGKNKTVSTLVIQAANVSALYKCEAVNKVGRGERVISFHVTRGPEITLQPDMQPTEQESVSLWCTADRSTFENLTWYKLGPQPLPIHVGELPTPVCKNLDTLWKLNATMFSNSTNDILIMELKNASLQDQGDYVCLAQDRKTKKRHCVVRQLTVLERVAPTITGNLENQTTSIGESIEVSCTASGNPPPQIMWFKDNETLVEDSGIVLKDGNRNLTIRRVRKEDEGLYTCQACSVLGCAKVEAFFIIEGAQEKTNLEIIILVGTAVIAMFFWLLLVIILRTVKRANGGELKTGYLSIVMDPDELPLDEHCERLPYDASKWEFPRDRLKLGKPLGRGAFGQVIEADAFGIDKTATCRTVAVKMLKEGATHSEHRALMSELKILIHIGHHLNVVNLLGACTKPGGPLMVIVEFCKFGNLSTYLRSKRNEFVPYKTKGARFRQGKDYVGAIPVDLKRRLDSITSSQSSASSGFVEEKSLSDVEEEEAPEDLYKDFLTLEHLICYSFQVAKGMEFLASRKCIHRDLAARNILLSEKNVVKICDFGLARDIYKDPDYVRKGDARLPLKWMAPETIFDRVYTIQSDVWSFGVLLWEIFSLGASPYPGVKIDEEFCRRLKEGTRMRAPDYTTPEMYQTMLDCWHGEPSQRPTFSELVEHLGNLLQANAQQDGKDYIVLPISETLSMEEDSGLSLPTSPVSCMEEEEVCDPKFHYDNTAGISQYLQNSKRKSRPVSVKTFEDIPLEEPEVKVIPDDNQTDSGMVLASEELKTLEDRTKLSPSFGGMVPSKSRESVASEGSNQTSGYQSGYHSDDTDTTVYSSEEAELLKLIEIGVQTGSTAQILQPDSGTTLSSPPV

KIT (human) = KIT (human) (UniProt P10721)
LCK (human) = LCK (human) (UniProt P06239)
LYN (human) = LYN (human) (UniProt P07948)
MATK (human) = MATK (human) (UniProt P42679)
MET (human) = MET (human) (UniProt P08581)
NTRK1 (human) = NTRK1 (human) (UniProt P04629)
RET (human) = RET (human) (UniProt P07949)
SRC (human) = SRC (human) (UniProt P12931)
SRMS (human) = SRMS (human) (UniProt Q9H3Y6)
TYK2 JH1 JH2 (human) = TYK2 JH1 JH2 (human) (UniProt P29597)
TYRO3 (human) = TYRO3 (human) (UniProt Q06418)
Sequence of TYRO3 (human) (Q06418 whole entry, looked up): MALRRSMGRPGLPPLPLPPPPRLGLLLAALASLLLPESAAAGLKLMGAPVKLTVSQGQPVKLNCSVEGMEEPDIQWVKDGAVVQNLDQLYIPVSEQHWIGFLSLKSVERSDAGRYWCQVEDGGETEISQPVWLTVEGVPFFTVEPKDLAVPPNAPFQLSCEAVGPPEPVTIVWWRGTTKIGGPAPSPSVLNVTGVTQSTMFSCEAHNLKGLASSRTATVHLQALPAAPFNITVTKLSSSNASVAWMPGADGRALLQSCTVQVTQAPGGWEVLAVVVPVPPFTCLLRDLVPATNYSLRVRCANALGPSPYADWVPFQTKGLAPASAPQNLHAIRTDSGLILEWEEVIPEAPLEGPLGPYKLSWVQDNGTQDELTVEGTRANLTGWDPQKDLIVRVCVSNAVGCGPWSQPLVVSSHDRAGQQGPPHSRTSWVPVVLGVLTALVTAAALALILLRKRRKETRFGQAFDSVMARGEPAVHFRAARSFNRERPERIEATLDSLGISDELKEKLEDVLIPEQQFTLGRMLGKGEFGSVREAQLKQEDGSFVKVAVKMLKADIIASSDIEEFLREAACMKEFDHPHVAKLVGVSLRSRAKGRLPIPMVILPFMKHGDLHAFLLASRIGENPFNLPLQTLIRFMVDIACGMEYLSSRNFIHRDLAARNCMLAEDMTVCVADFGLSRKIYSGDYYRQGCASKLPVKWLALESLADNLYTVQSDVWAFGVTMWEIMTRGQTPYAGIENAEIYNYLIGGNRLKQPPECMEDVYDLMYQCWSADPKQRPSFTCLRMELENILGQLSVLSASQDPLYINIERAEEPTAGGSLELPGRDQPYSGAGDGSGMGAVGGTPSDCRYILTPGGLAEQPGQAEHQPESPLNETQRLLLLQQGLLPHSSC

Sequence of FGFR1 (human) (P11362 whole entry, looked up): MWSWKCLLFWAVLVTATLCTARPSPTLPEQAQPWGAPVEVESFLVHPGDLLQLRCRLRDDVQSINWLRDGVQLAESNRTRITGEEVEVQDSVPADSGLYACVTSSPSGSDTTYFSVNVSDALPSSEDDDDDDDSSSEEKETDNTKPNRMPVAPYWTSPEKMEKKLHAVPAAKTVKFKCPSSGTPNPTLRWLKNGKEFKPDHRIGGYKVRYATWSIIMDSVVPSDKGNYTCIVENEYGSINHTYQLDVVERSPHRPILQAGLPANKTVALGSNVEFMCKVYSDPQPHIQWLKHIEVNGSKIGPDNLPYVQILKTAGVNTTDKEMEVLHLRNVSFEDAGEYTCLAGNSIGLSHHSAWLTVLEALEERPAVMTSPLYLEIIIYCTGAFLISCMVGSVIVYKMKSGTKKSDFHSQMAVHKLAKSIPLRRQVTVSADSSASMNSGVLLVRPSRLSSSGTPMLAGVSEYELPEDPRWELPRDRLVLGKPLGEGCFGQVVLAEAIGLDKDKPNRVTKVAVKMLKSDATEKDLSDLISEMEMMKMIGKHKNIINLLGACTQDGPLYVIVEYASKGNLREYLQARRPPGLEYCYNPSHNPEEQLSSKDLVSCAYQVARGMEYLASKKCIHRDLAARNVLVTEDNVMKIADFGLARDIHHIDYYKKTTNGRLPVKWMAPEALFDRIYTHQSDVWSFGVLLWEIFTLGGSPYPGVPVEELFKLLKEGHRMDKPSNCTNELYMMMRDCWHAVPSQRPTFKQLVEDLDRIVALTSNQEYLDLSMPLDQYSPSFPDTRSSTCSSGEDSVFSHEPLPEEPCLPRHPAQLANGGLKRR

## O=C1c2ccccc2-c2n[nH]c3cccc1c23
ABL1 (human)
  pKi: < 6.20
BLK (human)
  pKi: 6.70
BTK (human)
  pKi: < 5.90
CSF1R (human)
  pKi: 6.90
EPHA2 (human)
  pKi: < 5.50
ERBB4 (human)
  pKi: 5.40
FER (human)
  pKi: 7.30
FGFR1 (human)
  pKi: 6.60
FLT3 (human)
  pKi: 7.30
FLT4 (human)
  pKi: 7.80
FRK (human)
  pKi: 7.20
FYN (human)
  pKi: < 6.10
IGF1R (human)
  pKi: < 5.70
INSR (human)
  pKi: 6.30
KDR (human)
  pKi: 6.20
KIT (human)
  pKi: 5.90
LCK (human)
  pKi: 5.70
LYN (human)
  pKi: 6.00
MATK (human)
  pKi: 6.30
MET (human)
  pKi: 6.30
NTRK1 (human)
  pKi: 5.90
RET (human)
  pKi: 7.20
SRC (human)
  pKi: < 5.70
SRMS (human)
  pKi: < 5.80
TYK2 JH1 JH2 (human)
  pKi: 5.90
TYRO3 (human)
  pKi: 6.00

From the kinase profiling compilation of Christmann-Franck et al. (2016)
